The text below walks through data of PMC9217999 (Targeted Oncology, 2022).

For series [1], the system named is xenograft models of pediatric solid tumors. To be noted: ref Roche data on file; cited from earlier work.
In series [2] the test system is unresectable/metastatic BRAF V600E/K-mutated melanoma. To be noted: combined with vemurafenib versus vemurafenib plus placebo, p < 0.0001; cited from earlier work.
Series [3] can be described thus: Cobimetinib plasma pharmacokinetics in iMATRIX-cobi. To be noted: for Cmax: human, plasma, oral, 1 mg/kg, Steady state Cmax, geometric mean (%CV), 1.0 mg/kg suspension. The format is in vivo, human.
A further series relates to P-glycoprotein. The conditions noted are these: cited from earlier work.
The conditions of series [4]: adults, similar dose; cited from earlier work.
The test system of series [5] is pediatric cancer cell lines. To be noted: ref Roche data on file; cited from earlier work.
For series [6] the following is noted: Days 1−21 of each 28-day cycle; cited from earlier work.

The term Cmax denotes the highest concentration seen after dosing. Take `O=C(c1ccc(F)c(F)c1Nc1ccc(I)cc1F)N1CC(O)([C@@H]2CCCCN2)C1` [cobimetinib]: the “Activity in xenograft models” value in series [1] was “activity observed”. In series [2], the “Investigator-assessed progression-free survival (PFS)” value is recorded as “significantly improved”. The “Objective response rate (ORR)” value in series [2] was “significantly improved”. In addition, the Cmax in series [3] (dose escalation (n = 8)) stood at 179 ng/mL; in series [3] (expansion (n = 9)) it was 116 ng/mL. Also, the Exposure-safety relationships result in series [3] (pediatric patients) is given as “no exposure-safety relationships”. Also, the P-glycoprotein substrate result with P-glycoprotein is reported as “substrate of P-glycoprotein”. In series [4], the “Cobimetinib AUC lower in healthy subjects versus cancer patients” value is reported as 50%. Moreover, in series [5], the Cytotoxic effects entry is on record as “Cytotoxic effects”. Moreover, the “Recommended Phase II dose (RP2D) in adults” value in series [6] is 60 mg/day.
